From patent publication US8349851B2, “JAK kinase modulating compounds and methods of use thereof” (Ambit Biosciences Corp., priority 2009, dated 2013)
Counter-ions that a name gives are not always drawn.

Key:
[1] = molecular target: T1, JAK2 (Homo sapiens, UniProt O60674); test: Competition binding assay, JAK2; details: read-out: Binding Assay: JAK2 (active_KD)
T1 construct: made in house
Source text: (§1) Competition Binding Assay to Determine Binding Constants (Kd) of the Compounds Against JAK Kinases
(§2) Competition binding assays used herein were developed, validated and performed as described in Fabian et al., Nature Biotechnology 2005, 23,329-336. Kinases were produced as fusions to T7 phage (See, Fabian et al. or WO04/015142) or alternatively, the kinases were expressed in HEK-293 cells and subsequently tagged with DNA for PCR detection (See, WO08/005310). For the binding assays, streptavidin-coated magnetic beads were treated with biotinylated affinity ligands for 30 min at rt to generate affinity resins. The liganded beads were blocked with excess biotin and washed with blocking buffer (SeaBlock (Pierce), 1% BSA, 0.05% Tween 20, 1 mM DTT) to remove unbound ligand and to reduce non-specific binding. […] Test compounds were prepared as 100× stocks in DMSO and rapidly diluted into the aqueous environment. DMSO was added to control assays lacking a test compound. Primary screen interactions were performed in polypropylene 384-well plates in a final volume of 34 μL, while Kd determinations were performed in polystyrene 96-well plates in a final volume of 135 μL. […] The kinase concentration in the eluates was measured by quantitative PCR. Each kinase was tested individually against each compound. Kds were determined using eleven serial threefold dilutions. A selectivity score, which is a quantitative measure of selectivity of a compound against a panel of enzymes, may be calculated for a compound by dividing the number of enzymes for which a compound meets a set criteria, (for example, a binding constant of 100 nM or less), by the total number of enzymes tested.

[2] = tested on: csTF-1 cells (GM-CSFR/JAK2/STAT5 pathway); test: csTF-1 cell-based reporter assay; parameters: species or system human; details: Homo sapiens; GM-CSF at 2 ng/mL, 4 hours; read-out: Cell Assay: CS0017: CS TF-1 reporter assay: IC50
Experimental: csTF-1 Cell-based Reporter Assay
csTF-1 cells are derived from the human erythroleukemia cell line that is growth dependent on GM-CSF and has an intact GM-CSFR/JAK2/STAT5 pathway. The cell line contains stably integrated beta-lactamase reporter gene under the control of the […] (irf 1) response element recognized by the activated transcription factor STATS. csTF-1 cells (Invitrogen K1219) were washed with assay media (97% OPTIMEM/0.5% dialyzed FBS/0.1 mM NEAA/1 mM Na pyr/P/S) and seeded in the same media at 5×10^5 cell/mL in T150 flask. After 16 hour incubation, cells were seeded at 2×10^5 cell/well in 50 μl volume, into Costar, clear bottom, 96-well assay plates. Serial dilutions of compounds were added to the plates with final DMSO concentration at 0.5% and GM-CSF at 2 ng/mL and the plates were then incubated at […] and 5% CO2 for 4 hours. The plates were brought to room temperature before adding Substrate Mixture according to manufacturer's protocol (Invitrogen, Catalog #K1085). The assay plates containing the substrate mixture were incubated in the dark at room temperature for 2 hours. Blue and green fluorescence was measured with excitation at 409 nm and emission at 460 nm (for blue) and excitation at 409 nm and emission at 530 nm (for green) using Spectra Max Gemini EM.

[3] = molecular target: T2, JAK3 (Homo sapiens, UniProt P52333); test: Competition binding assay, JAK3; details: read-out: Binding Assay: JAK3 (active_KD, ENZ)
T2 construct: made in house
T2 sequence (P52333 822-1111 limits assumed): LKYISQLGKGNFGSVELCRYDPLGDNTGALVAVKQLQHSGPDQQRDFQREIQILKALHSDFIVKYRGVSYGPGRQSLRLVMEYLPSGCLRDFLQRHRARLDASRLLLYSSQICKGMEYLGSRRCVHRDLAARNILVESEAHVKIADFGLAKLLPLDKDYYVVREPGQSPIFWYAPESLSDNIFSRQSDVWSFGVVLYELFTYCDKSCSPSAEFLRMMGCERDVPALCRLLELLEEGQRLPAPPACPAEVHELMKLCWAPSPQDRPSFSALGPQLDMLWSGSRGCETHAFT
Source text: as §1, §2

[4] = molecular target: T3, AuroraB (Homo sapiens, UniProt Q96GD4); test: Competition binding assay, Aurora B
T3 construct: made in house
T3 sequence (Q96GD4 whole entry): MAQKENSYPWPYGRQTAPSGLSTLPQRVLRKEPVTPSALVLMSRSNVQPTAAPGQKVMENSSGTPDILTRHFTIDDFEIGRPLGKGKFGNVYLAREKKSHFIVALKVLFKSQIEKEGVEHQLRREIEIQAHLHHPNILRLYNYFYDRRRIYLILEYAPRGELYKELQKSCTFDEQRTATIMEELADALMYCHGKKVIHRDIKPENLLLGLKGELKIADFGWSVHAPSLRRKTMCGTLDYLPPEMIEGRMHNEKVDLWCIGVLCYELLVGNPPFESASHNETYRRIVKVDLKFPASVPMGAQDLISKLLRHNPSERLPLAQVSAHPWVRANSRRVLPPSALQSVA
Source text: Methods for determining binding constant against Aurora B kinase are known to one of skill in the art. Exemplary methods are described in U.S. provisional application No. 61/294,413, and Fabian et al., Nature Biotechnology 2005, 23,329-336.
as §2

T1 sequence (O60674 849-1124 limits assumed): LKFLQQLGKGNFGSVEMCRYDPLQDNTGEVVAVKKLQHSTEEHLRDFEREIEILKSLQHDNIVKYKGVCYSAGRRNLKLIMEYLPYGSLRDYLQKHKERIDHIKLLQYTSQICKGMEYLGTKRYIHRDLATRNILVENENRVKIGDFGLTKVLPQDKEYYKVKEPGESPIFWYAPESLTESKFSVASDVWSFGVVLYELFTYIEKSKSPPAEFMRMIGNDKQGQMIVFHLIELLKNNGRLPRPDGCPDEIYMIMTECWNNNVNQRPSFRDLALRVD

SMILES | Kd [1] [nM] | IC50 [2] [nM] | Kd [3] [nM] | Kd [4] [nM]
OC(c1ccc(F)cc1)c1nc(Nc2cc[nH]n2)c2ccccc2n1 (racemic) [Example 6, (R,S)-(4-(1H-pyrazol-3-ylamino)quinazolin-2-yl)(4-fluorophenyl)methanol] | ≤ 1 | ≤ 100 | 10 to 100 | > 200
Fc1ccc(C(F)c2nc(Nc3cc[nH]n3)c3ccccc3n2)cc1 (racemic) [Example 7, (R,S)-2-(fluoro(4-fluorophenyl)methyl)-N-(1H-pyrazol-3-yl)quinazolin-4-amine] | ≤ 1 | 100 to 500 | 10 to 100 | > 200
COC(c1ccc(F)cc1)c1nc(Nc2cc(C)[nH]n2)c2ccccc2n1 (racemic) [Example 13, (R,S)-2-((4-fluorophenyl)(methoxy)methyl)-N-(5-methyl-1H-pyrazol-3-yl)quinazolin-4-amine] | ≤ 1 | 100 to 500 | 10 to 100 | > 200
N#Cc1cc(Nc2nc(C(O)c3ccc(F)cc3)nc3ccccc23)n[nH]1 (racemic) [Example 15, (R,S)-3-(2-((4-fluorophenyl)(hydroxy)methyl)quinazolin-4-ylamino)-1H-pyrazole-5-carbonitrile] | > 10 | > 500 | > 100 | > 200
COc1ccc2c(Nc3cc[nH]n3)nc(C(O)c3ccc(F)cc3)nc2c1 (racemic) [Example 29, (R,S)-(4-(1H-pyrazol-3-ylamino)-7-methoxyquinazolin-2-yl)(4-fluorophenyl)methanol] | ≤ 1 | ≤ 100 | 10 to 100 | > 200
Cc1cc(Nc2nc(C(O)c3ccc(F)cc3)nc3cc(OCCN4CCOCC4)ccc23)n[nH]1 (racemic) [Example 38, (R,S)-(4-fluorophenyl)(4-(5-methyl-1H-pyrazol-3-ylamino)-7-(2-morpholinoethoxy)quinazolin-2-yl)methanol] | ≤ 1 | 100 to 500 | ≤ 10 | > 200
Cc1cc(Nc2nc(C(NC3CC3)c3ccc(F)cc3)nc3ccccc23)n[nH]1 (stereo not shown) [Example 69, 2-((cyclopropylamino)(4-fluorophenyl)methyl)-N-(5-methyl-1H-pyrazol-3-yl)quinazolin-4-amine] | ≤ 1 | 100 to 500 | 10 to 100 | –
Cc1cc(Nc2nc(C(CS(C)(=O)=O)c3ccc(F)cc3)nc3ccccc23)n[nH]1 (stereo not shown) [Example 70, 2-(1-(4-fluorophenyl)-2-(methylsulfonyl)ethyl)-N-(5-methyl-1H-pyrazol-3-yl)quinazolin-4-amine] | ≤ 1 | 100 to 500 | 10 to 100 | –
Cc1cc(Nc2nc(C(CCN)c3ccc(F)cc3)nc3ccccc23)n[nH]1 (stereo not shown) [Example 71, 2-(3-amino-1-(4-fluorophenyl)propyl)-N-(5-methyl-1H-pyrazol-3-yl)quinazolin-4-amine] | 1 to 10 | > 500 | 10 to 100 | –
COc1cc(Nc2nc(C(=O)c3ccc(F)cc3)nc3ccccc23)n[nH]1 [Example 73, (4-fluorophenyl)(4-(5-methoxy-1H-pyrazol-3-ylamino)quinazolin-2-yl)methanone] | ≤ 1 | 100 to 500 | 10 to 100 | –

The remaining lines, values ahead:

Kd [1] [nM] | IC50 [2] [nM] | Kd [3] [nM] | Kd [4] [nM] | SMILES
– | ≤ 100 | – | 50 to 200 | Cc1cc(Nc2nc(C(O)c3ccc(F)cc3)nc3ccccc23)n[nH]1 (racemic) [Example 12, (R,S)-(4-fluorophenyl)(4-(5-methyl-1H-pyrazol-3-ylamino)quinazolin-2-yl)methanol hydrochloride]
1 to 10 | 100 to 500 | 10 to 100 | > 200 | Cc1cc(Nc2nc(C(N)c3ccc(F)cc3)nc3ccccc23)n[nH]1 (racemic) [Example 14, (R,S)-2-(amino(4-fluorophenyl)methyl)-N-(5-methyl-1H-pyrazol-3-yl)quinazolin-4-amine]
> 10 | 100 to 500 | > 100 | > 200 | Cc1cc(Nc2nc(C(O)c3ccc(F)cc3)nc3cccc(F)c23)n[nH]1 (racemic) [Example 16, (R,S)-(5-fluoro-4-(5-methyl-1H-pyrazol-3-ylamino)quinazolin-2-yl)(4-fluorophenyl)methanol]
1 to 10 | 100 to 500 | 10 to 100 | > 200 | Cc1cc(Nc2nc(C(O)c3ccc(F)cc3)nc3cc(C(F)(F)F)ccc23)n[nH]1 (racemic) [Example 18, (R,S)-(4-fluorophenyl)(4-(5-methyl-1H-pyrazol-3-ylamino)-7-(trifluoromethyl)quinazolin-2-yl)methanol]
1 to 10 | 100 to 500 | > 100 | > 200 | OC(c1ccc(F)cc1)c1nc(Nc2cc[nH]n2)c2ccc(I)cc2n1 (racemic) [Example 23, (R,S)-(4-(1H-pyrazol-3-ylamino)-7-iodoquinazolin-2-yl)(4-fluorophenyl)methanol]
≤ 1 | ≤ 100 | 10 to 100 | > 200 | Cc1ccc2c(Nc3cc(C)[nH]n3)nc(C(O)c3ccc(F)cc3)nc2c1 (racemic) [Example 25, (R,S)-(4-fluorophenyl)(7-methyl-4-(5-methyl-1H-pyrazol-3-ylamino)quinazolin-2-yl)methanol]
≤ 1 | ≤ 100 | 10 to 100 | > 200 | COc1ccc2c(Nc3cc(C)[nH]n3)nc(C(O)c3ccc(F)cc3)nc2c1 (racemic) [Example 31, (R,S)-(4-fluorophenyl)(7-methoxy-4-(5-methyl-1H-pyrazol-3-ylamino)quinazolin-2-yl)methanol]
≤ 1 | ≤ 100 | 10 to 100 | 20 to 50 | Cc1cc(Nc2nc(C(O)c3ccc(F)cc3)nc3cc(O)ccc23)n[nH]1 (racemic) [Example 36, (R,S)-2-((4-fluorophenyl)(hydroxy)methyl)-4-(5-methyl-1H-pyrazol-3-ylamino)quinazolin-7-ol]
≤ 1 | ≤ 100 | ≤ 10 | > 200 | Cc1cc(Nc2nc(C(O)c3ccc(F)cc3)nc3cc(OCCO)ccc23)n[nH]1 (racemic) [Example 39, (R,S)-2-(2-((4-fluorophenyl)(hydroxy)methyl)-4-(5-methyl-1H-pyrazol-3-ylamino)quinazolin-7-yloxy)ethanol]
≤ 1 | ≤ 100 | ≤ 10 | > 200 | Cc1cc(Nc2nc(C(O)c3ccc(F)cc3)nc3cc(OCCCO)ccc23)n[nH]1 (racemic) [Example 40, (R,S)-3-(2-((4-fluorophenyl)(hydroxy)methyl)-4-(5-methyl-1H-pyrazol-3-ylamino)quinazolin-7-yloxy)propan-1-ol]
≤ 1 | ≤ 100 | ≤ 10 | > 200 | COCCOc1ccc2c(Nc3cc(C)[nH]n3)nc(C(O)c3ccc(F)cc3)nc2c1 (racemic) [Example 42, (R,S)-(4-fluorophenyl)(7-(2-methoxyethoxy)-4-(5-methyl-1H-pyrazol-3-ylamino)quinazolin-2-yl)methanol]
≤ 1 | 100 to 500 | 10 to 100 | > 200 | Cc1cc(Nc2nc(C(O)c3ccc(F)cc3)nc3cc(OCC(=O)OC(C)(C)C)ccc23)n[nH]1 (racemic) [Example 43, (R,S)-tert-butyl 2-(2-((4-fluorophenyl)(hydroxy)methyl)-4-(5-methyl-1H-pyrazol-3-ylamino)quinazolin-7-yloxy)acetate]
